Data: PMC4336331, “Novel Receptor-Derived Cyclopeptides to Treat Heart Failure Caused by Anti-β1-Adrenoceptor Antibodies in a Human-Analogous Rat Model” (PLoS ONE, 2015)
Entries after “also recorded” stand apart in the source; their conditions may differ. Peptide text beside a SMILES is read from it.

Legend:
[1] = system: brain, liver, heart, kidney, eye, and spleen; test: Histologic analysis of organs for treatment-related pathologies
Source text: After the hearts all other relevant inner organs (e.g., lung, liver, spleen, kidneys, brain, and eyes) were removed, rinsed with ice-cold PBS, weighed, sectioned, and fixed for further histologic analysis.
Supplementary file pone.0117589.s003.tif: S3 Fig Histologic analysis of various organs (therapy-study, mono-treatment). Representative H&E-stained 2μm cross-sections from various organs analyzed for treatment-related pathologies. Panels (from top to bottom) show organs analyzed from immunised anti-β1EC2-positive untreated, β1EC2-CP-treated, or bisoprolol-treated rats. […] (TIF) Click here for additional data file.

[2] = system: anti-β1EC2-secreting cells; test: ELISPOT of splenocytes and bone marrow cells; format: in vivo, Lewis/CrlBR rats
Experimental: (b) For ELISPOT assays plates were coated overnight with either 1.8 μg/ml anti-rat IgG (H+L) or the specific antigens (GST/β1EC2-FP or GST alone) in 50 mM Tris-buffer, pH 9.4. The plates were then washed 3 times, blocked with BSA (3h, 37°C), and incubated overnight at 37°C with splenocytes or bone marrow cells from rats treated as indicated in RPMI 1640/X-VIVO-15 medium supplemented with 10% FCS (1x10^3 to 10^6 cells per well). After 12 h the cells were discarded and the plates were washed several times (PBS/0.5% Tween) before an alkaline phosphatase-conjugated secondary anti-rat-IgG antibody (0.3 μg/ml) was added to detect bound rat IgG. After further incubation (3h, 37°C) and washing-steps (3 times PBS/0.5% Tween) the plates were developed using LMP/BCIP 5:1 (1.0 ml per well; LMP, low melting agarose; BCIP, 5-bromo-4-chloro-3-indolyl phosphate p-toluidine salt, a blue-colored dye).
Fig 5 Immunology of cyclic β1EC2-peptides: fate of β1EC2-specific T- and B-cells. (A) Titer-course of anti-β1EC2-abs in β1EC2-CP-treated rats during the first 6 months of the prevention-study before and 24h after cyclopeptide-injection. Time-points of antigen-boosts are indicated by (red) lines, time-points of CP-injections by (green) arrows. For better readability error-bars are not shown in the graph. (B) Pre-experiments (antigenic recall-assays) performed with CD4^+ T-cells prepared from spleens of GST/β1EC2 fusion-protein (FP)-immunised untreated (n = 3, black) vs. 0.9%NaCl-injected control rats (n = 3, white). (C and D) Reactivities of CD4^+ T-cells prepared from (C) preventively or (D) therapeutically β1EC2-CP- (green) or bisoprolol-treated animals (blue) compared to cells prepared from immunised untreated (black) or corresponding 0.9%NaCl-injected control rats (white). Columns ± error bars represent mean T-cell reactivities ±SEM normalized to medium (abbreviations: EC2-CP, cyclopeptide mimicking β1EC2; GST, glutathion-S-transferase; PPD, purified protein derivative; FP, GST/β1EC2 fusion-protein). […]

[3] = Plasma half-life in vivo of 123I-(tyrosine)-labeled peptides; conditions: 123I-(tyrosine)-labeled peptide, 1.4 to 1.8 MBq/animal injected; central venous blood samples gamma-counted 2, 4, 6, 8, 10, 20, 30, 60 min after injection; difference n.s.

| Structure (SMILES) | treatment-related organ pathologies / organ-toxicity, in words ([1]; rat, in vivo) | overall numbers of IgG-producing cells, in words ([2]; ELISPOT (Fig. 5F, H, and J)) | frequencies of anti-β1EC2-producing (long-lived) PC, in words ([2]; ELISPOT, splenocytes or bone marrow cells two weeks after the last antigen-boost (Fig. 5E and F)) | treatment-related organ pathologies / organ-toxicity, in words ([1]; therapy-study, after 12 months of treatment, H&E-stained sections (S3 Fig.)) | plasma-half life in vivo (t ½) [3] | reduction in the frequencies of splenocytes secreting anti-β1EC2-abs, in words ([2]; ELISPOT 3 days after antigen-boost (S5A Fig.)) |
| --- | --- | --- | --- | --- | --- | --- |
| CC(C)NCC(O)COc1ccc(COCCOC(C)C)cc1 (stereo not shown) [bisoprolol, reference compound] | Neither treatment strategy caused detectable organ-specific toxicity |  |  |  |  |  |
| CC(C)[C@@H]1NC(=O)[C@H](Cc2ccccc2)NC(=O)[C@H](CC(=O)O)NC(=O)[C@H](CS)NC(=O)[C@H](CS)NC(=O)[C@H](CCCCN)NC(=O)[C@@H]2CCCN2C(=O)[C@H](CC(=O)O)NC(=O)[C@H](CC(N)=O)NC(=O)[C@H](Cc2ccc(O)cc2)NC(=O)[C@H](CS)NC(=O)[C@H](CCCNC(=N)N)NC(=O)[C@H](CCCNC(=N)N)NC(=O)[C@H](C)NC(=O)[C@H](CCC(=O)O)NC(=O)[C@H](CC(=O)O)NC(=O)[C@H](CO)NC(=O)[C@H](CCC(=O)O)NC(=O)[C@H](C)NC(=O)[C@H](CCCNC(=N)N)NC(=O)[C@H](C)NC(=O)[C@H](CCC(N)=O)NC(=O)CNC(=O)[C@H](CCCNC(=N)N)NC(=O)[C@H](CC(N)=O)NC(=O)[C@H]([C@@H](C)O)NC1=O [β1EC2-CP] (cyclo(AESDEARRCYNDPKCCDFVTNRGQAR)) |  | not at all affected | did not reduce | no β1EC2-CP-related pathologies were noted; also recorded: Neither treatment strategy caused detectable organ-specific toxicity | 8.1 ± 2.8 min |  |
| CC(C)[C@H](NC(=O)[C@H](Cc1ccccc1)NC(=O)[C@H](CC(=O)O)NC(=O)[C@H](CS)NC(=O)[C@H](CS)NC(=O)[C@H](CCCCN)NC(=O)[C@@H]1CCCN1C(=O)[C@H](CC(=O)O)NC(=O)[C@H](CC(N)=O)NC(=O)[C@H](Cc1ccc(O)cc1)NC(=O)[C@H](CS)NC(=O)[C@H](CCCNC(=N)N)NC(=O)[C@H](CCCNC(=N)N)NC(=O)[C@H](C)NC(=O)[C@H](CCC(=O)O)NC(=O)[C@H](CC(=O)O)NC(=O)[C@H](CO)NC(=O)[C@H](CCC(=O)O)NC(=O)[C@H](C)NC(=O)[C@H](CCCNC(=N)N)NC(=O)[C@H](C)N)C(=O)N[C@H](C(=O)N[C@@H](CC(N)=O)C(=O)N[C@@H](CCCNC(=N)N)C(=O)NCC(N)=O)[C@@H](C)O [β1EC2-Lin] (H-ARAESDEARRCYNDPKCCDFVTNRG-NH2; N-terminus and C-terminus assumed) |  |  |  |  | 3.9 ± 2.2 min | not achieved |
